From patent US11174268B2, “Benzenesulfonamide compouds and their use as therapeutic agents” (Xenon Pharmaceuticals Inc., priority 2016, dated 2021) come the findings set out here.

The target of one data set is NaV1.6 (Homo sapiens (Human), UniProt Q9UQD0). The data set is described as follows: Sodium Influx Assay (Flux), NaV1.6.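 Note: Tetracycline-induced cells, compounds applied for one hour at room temperature with modulators holding channels open, IC50 from percent inhibition of sodium influx.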 The class given is cell-based. To be noted: Trex HEK293 cells, ANG2 dye, inactivated state.
In the next data set the target is NaV1.1 (Homo sapiens (Human), UniProt P35498). In words: Sodium Influx Assay (Flux), NaV1.1.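 Note: channels co-expressed with human β1 subunit and held open by modulators, cells exposed to compounds for one hour at room temperature, IC50 from percent inhibition of influx.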 Format: cell-based. To be noted: Trex HEK293 cells, ANG2 dye, inactivated state.
A further data set addresses NaV1.5 (Homo sapiens (Human), UniProt Q14524). In words: Sodium Influx Assay (Flux), NaV1.5.
The mark [1] stands for this setting: read-out: Flux NaV1.5 IC50, Trex HEK293 cells, ANG2 dye, inactivated state.

Where a name gives a salt, the structure may show the parent alone. Read-outs that look alike come from different tables or passages of the source.

Sequence of NaV1.5 (Q14524 other isoform, or with tags, fused parts or gaps): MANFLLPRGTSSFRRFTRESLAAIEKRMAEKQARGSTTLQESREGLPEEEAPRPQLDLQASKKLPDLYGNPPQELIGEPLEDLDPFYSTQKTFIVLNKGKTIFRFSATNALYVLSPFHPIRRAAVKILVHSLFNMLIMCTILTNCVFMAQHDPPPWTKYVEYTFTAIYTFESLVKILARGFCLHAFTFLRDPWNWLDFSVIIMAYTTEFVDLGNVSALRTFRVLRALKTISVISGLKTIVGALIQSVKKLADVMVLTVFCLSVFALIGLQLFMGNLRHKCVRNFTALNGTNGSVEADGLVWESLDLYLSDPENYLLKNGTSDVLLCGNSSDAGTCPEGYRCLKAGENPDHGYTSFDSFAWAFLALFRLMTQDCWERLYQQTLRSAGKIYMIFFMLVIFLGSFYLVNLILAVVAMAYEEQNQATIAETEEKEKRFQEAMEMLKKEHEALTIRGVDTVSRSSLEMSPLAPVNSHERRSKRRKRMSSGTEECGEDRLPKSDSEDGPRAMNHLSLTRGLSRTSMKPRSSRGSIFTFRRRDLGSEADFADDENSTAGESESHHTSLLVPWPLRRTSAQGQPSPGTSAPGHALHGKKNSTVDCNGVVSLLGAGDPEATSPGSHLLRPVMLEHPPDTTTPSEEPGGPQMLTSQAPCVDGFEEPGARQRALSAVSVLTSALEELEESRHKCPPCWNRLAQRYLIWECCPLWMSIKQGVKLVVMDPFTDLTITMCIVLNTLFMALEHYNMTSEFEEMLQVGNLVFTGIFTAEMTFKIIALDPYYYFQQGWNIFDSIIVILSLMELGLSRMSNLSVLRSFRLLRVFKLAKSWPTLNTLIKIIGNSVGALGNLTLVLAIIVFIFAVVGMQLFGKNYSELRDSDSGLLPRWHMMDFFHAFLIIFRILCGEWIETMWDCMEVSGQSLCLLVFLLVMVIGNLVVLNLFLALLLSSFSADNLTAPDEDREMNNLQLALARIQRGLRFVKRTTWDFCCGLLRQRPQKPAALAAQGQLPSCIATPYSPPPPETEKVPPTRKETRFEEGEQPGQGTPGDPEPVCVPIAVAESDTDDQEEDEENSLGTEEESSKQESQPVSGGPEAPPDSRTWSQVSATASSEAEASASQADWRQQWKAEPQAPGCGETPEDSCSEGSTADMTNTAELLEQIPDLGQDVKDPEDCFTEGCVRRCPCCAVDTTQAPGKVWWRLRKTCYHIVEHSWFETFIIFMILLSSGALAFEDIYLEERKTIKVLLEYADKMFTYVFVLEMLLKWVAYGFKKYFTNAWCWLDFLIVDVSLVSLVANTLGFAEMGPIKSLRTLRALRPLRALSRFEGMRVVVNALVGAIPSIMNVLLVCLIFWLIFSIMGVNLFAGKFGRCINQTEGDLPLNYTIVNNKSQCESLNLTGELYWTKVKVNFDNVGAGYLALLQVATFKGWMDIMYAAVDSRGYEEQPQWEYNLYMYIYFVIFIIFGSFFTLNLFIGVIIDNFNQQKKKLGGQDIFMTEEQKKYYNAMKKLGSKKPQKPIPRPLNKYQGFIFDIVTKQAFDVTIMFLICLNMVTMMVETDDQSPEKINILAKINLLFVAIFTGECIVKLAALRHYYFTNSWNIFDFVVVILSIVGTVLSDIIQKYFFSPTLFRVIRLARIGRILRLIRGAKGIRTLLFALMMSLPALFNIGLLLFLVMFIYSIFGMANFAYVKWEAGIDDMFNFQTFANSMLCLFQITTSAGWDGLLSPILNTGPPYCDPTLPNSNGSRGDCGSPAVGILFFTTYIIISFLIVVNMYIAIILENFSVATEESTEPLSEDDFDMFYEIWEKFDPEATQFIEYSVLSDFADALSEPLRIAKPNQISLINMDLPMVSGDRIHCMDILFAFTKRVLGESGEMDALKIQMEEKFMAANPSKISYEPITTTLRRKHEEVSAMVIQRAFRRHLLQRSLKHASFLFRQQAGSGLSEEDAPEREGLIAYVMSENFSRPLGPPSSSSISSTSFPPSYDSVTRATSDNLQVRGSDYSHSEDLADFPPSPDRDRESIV

Regarding “2,6-difluoro-4-((2-fluoro-6-((3-hydroxy-3-methylazetidin-1-yl)methyl)benzyl)amino)-N-(thiazol-4-yl)benzenesulfonamide formate [Example 169]”, the IC50 (commonly the midpoint of a concentration-inhibition curve) came to 0.011 µM on NaV1.6, 6.38 µM against NaV1.1 and 29 µM at NaV1.5 (setting [1]).

Regarding “4-((2-((3-(difluoromethyl)azetidin-1-yl)methyl)-6-fluorobenzyl)amino)-2,6-difluoro-N-(thiazol-4-yl)benzenesulfonamide formate [Example 168]”, the IC50 was 0.12 µM against NaV1.6, 17.7 µM against NaV1.1 and 21.7 µM at NaV1.5 (setting [1]).

Consider `C[C@@H](Oc1ccc(S(=O)(=O)Nc2ncns2)cc1Cl)c1ccccc1` (racemic) [Example 87, (R) and (S)-3-chloro-4-(1-phenylethoxy)-N-(1,2,4-thiadiazol-5-yl)benzenesulfonamide], for which the figures for the IC50 on NaV1.6, at NaV1.1 and against NaV1.5 were 8.6 µM, ≥ 30 µM and 24.7 µM, respectively.

In the case of `CC[C@H](Nc1cc(F)c(S(=O)(=O)Nc2nccs2)cc1Br)c1ccccc1` [Example 1, (S)-5-bromo-2-fluoro-4-((1-phenylpropyl)amino)-N-(thiazol-2-yl)benzenesulfonamide], the IC50 against NaV1.6 came to 0.12 µM; against NaV1.1, 0.784 µM; at NaV1.5 (setting [1]), 8.92 µM.

On to `C[C@H](Nc1cc(F)c(S(=O)(=O)Nc2nccs2)cc1Cl)c1cccc2ccccc12` [Example 2, (S)-5-chloro-2-fluoro-4-((1-(naphthalen-1-yl)ethyl)amino)-N-(thiazol-2-yl)benzenesulfonamide], for which the IC50 against NaV1.6 is 5.02 µM; on NaV1.1, 16 µM; at NaV1.5 (setting [1]) it was 8.25 µM.

`C[C@H](Nc1cc(F)c(S(=O)(=O)Nc2nccs2)cc1Cl)c1cccc(C(F)(F)F)c1` [Example 3, (S)-5-chloro-2-fluoro-N-(thiazol-2-yl)-4-((1-(3-(trifluoromethyl)phenyl)ethyl)amino)benzenesulfonamide]: the results for the IC50 against NaV1.6, on NaV1.1 and on NaV1.5 (setting [1]) were 0.679 µM, 3.38 µM and 5.25 µM, respectively.

Regarding `C[C@H](Nc1cc(F)c(S(=O)(=O)Nc2cscn2)cc1Cl)c1cccc(Cl)c1F` [Example 6, (S)-5-chloro-4-((1-(3-chloro-2-fluorophenyl)ethyl)amino)-2-fluoro-N-(thiazol-4-yl)benzenesulfonamide], the IC50 at NaV1.6 turned out to be 3.38 µM; against NaV1.1, 3.76 µM; on NaV1.5 (setting [1]), 5.52 µM.

Take `C[C@H](Nc1cc(F)c(S(=O)(=O)Nc2nccs2)cc1Cl)c1cccc(Br)c1` [Example 7, (S)-4-((1-(3-bromophenyl)ethyl)amino)-5-chloro-2-fluoro-N-(thiazol-2-yl)benzenesulfonamide]: the IC50 on NaV1.6 worked out at 0.376 µM; against NaV1.1, 3 µM; at NaV1.5 (setting [1]) it was 9.68 µM.

Take `C[C@H](Nc1cc(F)c(S(=O)(=O)Nc2nccs2)cc1Cl)c1ccc(Cl)cc1` [Example 14, (S)-5-chloro-4-((1-(4-chlorophenyl)ethyl)amino)-2-fluoro-N-(thiazol-2-yl)benzenesulfonamide]: the values for the IC50 against NaV1.6, against NaV1.1 and at NaV1.5 (setting [1]) were 1.79 µM, 4.65 µM and 14.4 µM, respectively.

For the molecule `C[C@H](Nc1cc(F)c(S(=O)(=O)Nc2nccs2)cc1Cl)c1ccc2ccccc2c1` [Example 15, (S)-5-chloro-2-fluoro-4-((1-(naphthalen-2-yl)ethyl)amino)-N-(thiazol-2-yl)benzenesulfonamide], the values for the IC50 at NaV1.6, at NaV1.1 and at NaV1.5 (setting [1]) were 7.15 µM, 9.41 µM and 23.6 µM, respectively.

With `N#Cc1ccccc1CNc1cc(F)c(S(=O)(=O)Nc2nccs2)cc1Cl` [Example 17, 5-chloro-4-((2-cyanobenzyl)amino)-2-fluoro-N-(thiazol-2-yl)benzenesulfonamide], the IC50 against NaV1.6 is 0.308 µM; against NaV1.1, 0.494 µM; at NaV1.5 (setting [1]), 8.46 µM.

In the case of `O=S(=O)(Nc1cscn1)c1cc(Cl)c(NC2(c3ccccc3)CCC2)cc1F` [Example 18, 5-chloro-2-fluoro-4-((1-phenylcyclobutyl)amino)-N-(thiazol-4-yl)benzenesulfonamide], the IC50 stood at 3.35 µM against NaV1.6, 8.37 µM against NaV1.1 and 11.9 µM at NaV1.5 (setting [1]).

For the molecule `C[C@H](Nc1c(Cl)cc(S(=O)(=O)Nc2nccs2)cc1Cl)c1ccccc1F` [Example 21, (S)-3,5-dichloro-4-((1-(2-fluorophenyl)ethyl)amino)-N-(thiazol-2-yl)benzenesulfonamide], the IC50 was determined as 3.67 µM at NaV1.6, 3.63 µM against NaV1.1 and 2.89 µM at NaV1.5 (setting [1]).

On to `C[C@H](Nc1cc(F)c(S(=O)(=O)Nc2cccc(F)n2)cc1Cl)c1ccccc1Cl` [Example 23, (S)-5-chloro-4-((1-(2-chlorophenyl)ethyl)amino)-2-fluoro-N-(6-fluoropyridin-2-yl)benzenesulfonamide], for which the IC50 turned out to be 1.52 µM against NaV1.6, 5.4 µM against NaV1.1 and 4.09 µM on NaV1.5 (setting [1]).

For the molecule `C[C@H](Nc1ccc(S(=O)(=O)Nc2cscn2)cc1Cl)c1ccccc1` [Example 24, (S)-3-chloro-4-((1-phenylethyl)amino)-N-(thiazol-4-yl)benzenesulfonamide], the IC50 was 4.09 µM on NaV1.6, 5.85 µM on NaV1.1 and 8.32 µM on NaV1.5 (setting [1]).

Turning to `O=S(=O)(Nc1cscn1)c1cc(Cl)c(OC2CCc3c2cccc3C(F)(F)F)cc1F` (stereo not drawn) [Example 29, 5-chloro-2-fluoro-N-(thiazol-4-yl)-4-((4-(trifluoromethyl)-2,3-dihydro-1H-inden-1-yl)oxy)benzenesulfonamide], the figures for the IC50 against NaV1.6, on NaV1.1 and at NaV1.5 (setting [1]) were 30 µM, 30 µM and 24.6 µM, respectively.

As to `O=S(=O)(Nc1ncns1)c1ccc(NCc2ccccc2)c(Cl)c1` [Example 33, 4-(Benzylamino)-3-chloro-N-(1,2,4-thiadiazol-5-yl)benzenesulfonamide], the results for the IC50 on NaV1.6, on NaV1.1 and on NaV1.5 (setting [1]) were 0.462 µM, 2.99 µM and 25.8 µM, respectively.

Turning to `CC(CNc1ccc(S(=O)(=O)Nc2ncns2)cc1Cl)c1ccccc1` (stereo not drawn) [Example 34, 3-chloro-4-((2-phenylpropyl)amino)-N-(1,2,4-thiadiazol-5-yl)benzenesulfonamide], the results for the IC50 against NaV1.6, against NaV1.1 and at NaV1.5 (setting [1]) were 1.27 µM, 0.84 µM and 4.91 µM, respectively.

On to `O=S(=O)(Nc1ncns1)c1ccc(N[C@@H]2CCc3ccccc32)c(Cl)c1` [Example 35, (R)-3-chloro-4-((2,3-dihydro-1H-inden-1-yl)amino)-N-(1,2,4-thiadiazol-5-yl)benzenesulfonamide], for which the IC50 on NaV1.6 came out at 0.839 µM; against NaV1.1 it was 0.301 µM; at NaV1.5 (setting [1]) it was 8.69 µM.

`O=S(=O)(Nc1ncns1)c1ccc(N[C@H]2CCc3ccccc32)c(Cl)c1` [Example 36, (S)-3-chloro-4-((2,3-dihydro-1H-inden-1-yl)amino)-N-(1,2,4-thiadiazol-5-yl)benzenesulfonamide]: the IC50 against NaV1.6 amounted to 1.4 µM; against NaV1.1 it was 1.34 µM; on NaV1.5 (setting [1]) it was 5.12 µM.

Regarding `O=S(=O)(Nc1nccs1)c1cc(Cl)c(N[C@H]2CCCc3ccccc32)cc1F` [Example 46, (S)-5-chloro-2-fluoro-4-((1,2,3,4-tetrahydronaphthalen-1-yl)amino)-N-(thiazol-2-yl)benzenesulfonamide], the figures for the IC50 against NaV1.6, against NaV1.1 and at NaV1.5 (setting [1]) were 1.66 µM, 0.999 µM and 7.04 µM, respectively.

For `C[C@H](Nc1cc(F)c(S(=O)(=O)Nc2nccs2)cc1Cl)c1cccc(Cl)c1` [Example 50, (S)-5-chloro-4-((1-(3-chlorophenyl)ethyl)amino)-2-fluoro-N-(thiazol-2-yl)benzenesulfonamide], the IC50 against NaV1.6 amounted to 0.169 µM; on NaV1.1, 1.28 µM; on NaV1.5 (setting [1]), 6.07 µM.

In the case of `C[C@H](Nc1cc(F)c(S(=O)(=O)Nc2nccs2)cc1Cl)c1cc(Cl)cc(Cl)c1` [Example 51, (S)-5-chloro-4-((1-(3,5-dichlorophenyl)ethyl)amino)-2-fluoro-N-(thiazol-2-yl)benzenesulfonamide], the IC50 stood at 10.8 µM at NaV1.6, 4.27 µM against NaV1.1 and 20.6 µM at NaV1.5 (setting [1]).

For the molecule `O=S(=O)(Nc1cscn1)c1c(F)cc(NCc2c(F)cccc2CN2CC3(COC3)C2)cc1F` [Example 153, 4-((2-((2-oxa-6-azaspiro[3.3]heptan-6-yl)methyl)-6-fluorobenzyl)amino)-2,6-difluoro-N-(thiazol-4-yl)benzenesulfonamide formate], the IC50 on NaV1.5 (setting [1]) stood at 30 µM.

Consider `O=S(=O)(Nc1cscn1)c1c(F)cc(NCc2c(F)cccc2CN2CCCC2)cc1F` [Example 166, 2,6-difluoro-4-((2-fluoro-6-(pyrrolidin-1-ylmethyl)benzyl)amino)-N-(thiazol-4-yl)benzenesulfonamide formate], for which the IC50 on NaV1.5 (setting [1]) amounted to 15.2 µM.

Take `COC1CN(Cc2cccc(F)c2CNc2cc(F)c(S(=O)(=O)Nc3cscn3)c(F)c2)C1` [Example 171, 2,6-difluoro-4-((2-fluoro-6-((3-methoxyazetidin-1-yl)methyl)benzyl)amino)-N-(thiazol-4-yl)benzenesulfonamide formate]: the IC50 on NaV1.5 (setting [1]) came out at 16.8 µM.

Turning to `COc1ccc(F)c([C@H](C)Nc2cc(F)c(S(=O)(=O)Nc3cscn3)c(F)c2)c1` [Example 238, (S)-2,6-difluoro-4-((1-(2-fluoro-5-methoxyphenyl)ethyl)amino)-N-(thiazol-4-yl)benzenesulfonamide], the IC50 on NaV1.1 came to 6.45 µM.

Regarding `C[C@H](Nc1ccc(S(=O)(=O)Nc2cscn2)cc1C(F)(F)F)c1cc(F)ccc1F` [Example 274, (S)-4-((1-(2,5-difluorophenyl)ethyl)amino)-N-(thiazol-4-yl)-3-(trifluoromethyl)benzenesulfonamide], at NaV1.5 (setting [1]), the IC50 amounted to 4.6 µM.

In the case of `CCc1cc(S(=O)(=O)Nc2cscn2)c(F)cc1N[C@@H](C)c1cc(F)ccc1F` [Example 297, (S)-4-((1-(2,5-difluorophenyl)ethyl)amino)-5-ethyl-2-fluoro-N-(thiazol-4-yl)benzenesulfonamide], at NaV1.5 (setting [1]), the IC50 turned out to be 8.63 µM.
